Reference: patent US9868707B2, “Small molecule agonists of neurotensin receptor 1” (SANFORD-BURNHAM MEDICAL RESEARCH INSTITUTE, priority 2012, dated 2018)
Read-outs that look alike come from different tables or passages of the source.

How the values were obtained:
[1] = Plasma stability, mouse plasma; assay type: in vitro ADME
Procedure: Plasma stability was determined using previously published methods (Kerns, E. H., and Di, L. 2008. Drug-like Properties: Concepts, Structure Design and Methods. Oxford UK: Elsevier). Compound (1.0 μM) was incubated at 37° C. in human or mouse plasma (from blood of healthy donors collected on EDTA) diluted to 50% (v/v) with pH 7.4 isotonic phosphate buffer. At time 0 min and 180 min, aliquots were collected, added to acetonitrile to quench the reaction and precipitate plasma proteins. These samples were centrifuged and the supernatant analyzed by the LC/MS/MS method described above for the presence of the parental compound.

[2] = Aqueous solubility, direct UV kinetic solubility method; assay type: physicochemical
Procedure: The aqueous solubility of the compound was determined using a direct UV kinetic solubility method (Avdeef, A. 2001. Physicochemical profiling (solubility, permeability and charge state). Curr Top Med Chem 1:277-351) in a 96-well format at pH 5.0, 6.2 and 7.4. Compounds (250 μM) were incubated for 18.0h at room temperature to achieve equilibrium, and then filtered to remove any precipitate. The concentration of the compound in solution was measured by UV absorbance (250-498 nm) and compared to the spectra of precipitation-free reference solutions. Spectroscopically pure 1-Propanol (Sigma, St Louis, Mo.) was used as a cosolvent to suppress precipitation in the reference solutions. The solubility of each compound was determined using μSOL Evolution Plus software v3.2 (pION Inc) and is expressed as the concentration (μg/mL) of a solute in a saturated solution

[3] = Brain levels in mouse after ip dosing; assay type: in vivo
[4] = Metabolic stability in human hepatic microsomes; assay type: in vitro ADME
Procedure: Hepatic metabolic stability was determined using established protocols (Di, L., Kerns, E. H., Hong, Y., Kleintop, T. A., McConnell, O. J., and Huryn, D. M. 2003. Optimization of a higher throughput microsomal stability screening assay for profiling drug discovery candidates. J Biomol Screen 8:453-462). Briefly, the compound (1.0 and 10.0 μM) was preincubated for 10 min at 37° C. in potassium phosphate buffer (pH 7.4) together with 0.5 mg/mL mouse or human hepatic microsomes (Xenotech, Kansas City). The cofactor mixture comprising NADP, G6P, and G6P-DH (BD Biosciences) was added, and aliquots were taken after 0 and 60 min. Samples were analyzed on an Acquity UPLC, coupled with a sample organizer, and interfaced with a triple quadrupole ABI 4000 LC/MS/MS using the methodology described above. The percentage of the compound remaining after a 60 min incubation period was calculated according the following equation: [(area at time 60 min)/(area at time 0 min)]×100%.

[5] = biological target: NTR1 (Homo sapiens, UniProt P30989); experiment: NTR1 Ca2+ Flux dose response (ChanTest, CHO); assay type: cell-based; parameters: host or cells: CHO; details: profiled by ChanTest
Procedure: The NTR1 Ca^2+ Flux assay was performed by ChanTest (Rockville, Md.). The assay used a CHO cell line, provided by ChanTest, which stably expressed the NTR1 receptor. The cells were grown and plated in Ham's F12 (11765) that was supplemented with fetal bovine serum (10437). Both were supplied by Gibco/Life Technologies (Carlsbad, Calif.). The DPBS (21-031CV) used in the assay was obtained from Cellgro/Mediatech and the G418 (ant-gn-1) was supplied by Invivogen. The Fluo-4 NW Dye (Invitrogen F36206) used to detect calcium mobilization was sourced by Invitrogen. […]
NTSR1 (NTR1) CHO cells are plated in 20 uL of assay media containing Ham's F12 supplemented with 10% fetal bovine serum and 0.4 mg/mL G418 at a concentration of 1.0×10^6 cells per mL into black, 384-well assay plates with clear bottoms using a Multidrop liquid handler. […] Following the incubation in the presence of dye, the assay is run on a Molecular Devices FlexStation-III using 494 excitation and 516 emission wavelengths set to read for 90 seconds with the addition at 18 seconds of 5 uL of 6× final concentration of test compounds and peptide control diluted in assay media containing 0.1% BSA and no more than 9% DMSO to yield a maximum final DMSO concentration of 1.5%. Percent activation is calculated based on the maximum response minus the minimum value over the time course relative to the neurotensin 1 control peptide at 100 pM. […]

Chain of NTR1 (P30989 whole entry): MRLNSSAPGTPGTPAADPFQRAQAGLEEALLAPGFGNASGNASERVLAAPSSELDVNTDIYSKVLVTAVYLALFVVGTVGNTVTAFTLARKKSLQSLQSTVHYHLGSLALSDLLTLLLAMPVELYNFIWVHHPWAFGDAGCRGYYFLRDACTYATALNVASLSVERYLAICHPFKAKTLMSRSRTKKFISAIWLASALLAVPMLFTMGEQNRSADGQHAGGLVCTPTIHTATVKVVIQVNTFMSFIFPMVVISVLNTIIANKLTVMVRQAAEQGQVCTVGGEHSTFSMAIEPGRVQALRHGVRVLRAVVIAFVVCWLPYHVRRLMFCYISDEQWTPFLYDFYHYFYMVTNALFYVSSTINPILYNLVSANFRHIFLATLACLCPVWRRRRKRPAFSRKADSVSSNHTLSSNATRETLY

For `COc1cc2nc(C3CC3)nc(N3CCN(c4ccccc4OC)CC3)c2cc1OC` [Compound 315, 2-cyclopropyl-6,7-dimethoxy-4-(4-(2-methoxyphenyl)piperazin-1-yl)quinazoline], the “Plasma Stability (% Remaining at 3 hrs)” value [1] was 99.55%, the solubility at 18 h ([2]; 1x PBS, pH 7.4, aqueous buffer, kinetic from dmso stock, read-out: Aqueous Solubility in 1x PBS, pH 7.4) was 0.45 µg/mL and the “Aqueous Solubility in 1x PBS, pH 7.4” value ([2]; 1x PBS, pH 7.4, molar units) was 1.1 μM. For the same compound, the “Aqueous Solubility in pION's buffer” value ([2]; pH 6.2) was 9.0 μg/mL, the solubility at 18 h ([2]; pH 7.4, molar units, read-out: Aqueous Solubility in pION's buffer) was 1.2 µM and the solubility at 18 h ([2]; pION's buffer, aqueous buffer, kinetic from dmso stock, pH 5.0, molar units, read-out: Aqueous Solubility in pION's buffer) was > 297 µM. For the same compound, the solubility at 18 h ([2]; pION's buffer, aqueous buffer, kinetic from dmso stock, pH 5.0, read-out: Aqueous Solubility in pION's buffer) was > 125 µg/mL, the solubility at 18 h ([2]; pION's buffer, pH 7.4, aqueous buffer, kinetic from dmso stock, read-out: Aqueous Solubility in pION's buffer) was 0.52 µg/mL and the brain/plasma ([3]; 1 hr after 10 mg/kg ip dose) was 1.3. For the same compound, the brain/plasma ([3]; 1 hr after 30 mg/kg ip dose) was 1.6, the “Hepatic Microsome Stability (% Remaining at 1 hr)” value [4] was 1.36% and the “metabolism in vitro with liver homogenates” value [4] was “metabolized rapidly”. For the same compound, the “NTR1 Ca2+ Flux assay activity” value [5] was “not active”.
